From patent publication US9701689B2, “Substituted pyridines and pyridazines as CCR10 receptor inhibitors” (KYOWA HAKKO KIRIN CO., LTD., priority 2012, dated 2017)

Target: T1, human CCR10 (Homo sapiens, UniProt P46092)
T1 construct: expressed in transfected cells; host or cells: KJMGER8 cells (Namalwa cell-derived line), beta-estradiol-induced; hCCR10G16 cells
T1 sequence (P46092 1-362): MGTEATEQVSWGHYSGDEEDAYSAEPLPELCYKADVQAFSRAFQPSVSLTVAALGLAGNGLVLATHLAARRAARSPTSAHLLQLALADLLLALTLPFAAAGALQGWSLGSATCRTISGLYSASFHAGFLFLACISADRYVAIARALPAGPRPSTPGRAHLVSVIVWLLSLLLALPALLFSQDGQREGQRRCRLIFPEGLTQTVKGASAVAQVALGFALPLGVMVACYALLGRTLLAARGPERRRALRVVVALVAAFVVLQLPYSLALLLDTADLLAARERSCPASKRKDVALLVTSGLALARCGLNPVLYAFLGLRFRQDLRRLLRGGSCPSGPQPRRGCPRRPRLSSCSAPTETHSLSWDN
Assay: CCR10 antagonistic effect: calcium assay of human CCR10 (CTACK-induced increase of intracellular calcium in hCCR10G16 cells)
Format: cell-based
Conditions: at a concentration of not more than 1000 nmol/L; human CCR10-expressing hCCR10G16 cells, 300 nmol/L CTACK added; read-out: inhibition of increase in the calcium ion concentration
In short: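 KJMGER8-derived hCCR10G16 cells (CCR10 plus Gα16, induced 24 h with 10 nmol/L β-estradiol), Fluo-3 loaded, preincubated with compound 30 min at 37 °C. Stimulated with CTACK (300 nmol/L solution before addition); calcium read ~5 min by FDSS, max−min fluorescence; % inhibition vs control.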

Structure (SMILES)	inhibition at up to 1 µM [%]
NS(=O)(=O)c1cc(Nc2ccc(Cl)c(F)c2Cl)c(C(=O)N2CCC(c3ccc(F)cc3)CC2)cn1 [Compound 75, 4-(2,4-dichloro-3-fluorophenylamino)-5-[4-(4-fluorophenyl)piperidine-1-carbonyl]pyridine-2-sulfonamide]	≥ 50
Cc1cccc(Nc2cc(S(N)(=O)=O)ncc2C(=O)N2CCC(c3ccc(F)cc3)CC2)c1F [Compound 76, 4-(2-fluoro-3-methylphenylamino)-5-[4-(4-fluorophenyl)piperidine-1-carbonyl]pyridine-2-sulfonamide]	≥ 50
Cc1c(Cl)ccc(Nc2cc(S(N)(=O)=O)ncc2C(=O)N2CCC(c3ccc(F)cc3)CC2)c1F [Compound 77, 4-(4-chloro-2-fluoro-3-methylphenylamino)-5-[4-(4-fluorophenyl)piperidine-1-carbonyl]pyridine-2-sulfonamide]	≥ 50
COc1ccc(Nc2cc(S(N)(=O)=O)ncc2C(=O)N2CCC(c3ccc(F)cc3)CC2)c(C)c1 [Compound 78, 5-[4-(4-fluorophenyl)piperidine-1-carbonyl]-4-(4-methoxy-2-methylphenylamino)pyridine-2-sulfonamide]	≥ 50
Cc1ccc(Nc2cc(S(N)(=O)=O)ncc2C(=O)N2CCC(c3ccc(F)cc3)CC2)cc1Cl [Compound 79, 4-(3-chloro-4-methylphenylamino)-5-[4-(4-fluorophenyl)piperidine-1-carbonyl]pyridine-2-sulfonamide]	≥ 50
NS(=O)(=O)c1cc(Nc2ccc(Cl)cc2F)c(C(=O)N2CCC(c3ccc(F)cc3)CC2)cn1 [Compound 80, 4-(4-chloro-2-fluorophenylamino)-5-[4-(4-fluorophenyl)piperidine-1-carbonyl]pyridine-2-sulfonamide]	≥ 50
NS(=O)(=O)c1cc(Nc2ccc(Cl)cc2Cl)c(C(=O)N2CCC(c3ccc(F)cc3)CC2)cn1 [Compound 81, 4-(2,4-dichlorophenylamino)-5-[4-(4-fluorophenyl)piperidine-1-carbonyl]pyridine-2-sulfonamide]	≥ 50
NS(=O)(=O)c1cc(Nc2ccc(Cl)cc2)c(C(=O)N2CCC(c3ccc(F)cc3)CC2)cn1 [Compound 82, 4-(4-chlorophenylamino)-5-[4-(4-fluorophenyl)piperidine-1-carbonyl]pyridine-2-sulfonamide]	≥ 50
Cc1cc(Nc2cc(S(N)(=O)=O)ncc2C(=O)N2CCC(c3ccc(F)cc3)CC2)ccc1F [Compound 83, 4-(4-fluoro-3-methylphenylamino)-5-[4-(4-fluorophenyl)piperidine-1-carbonyl]pyridine-2-sulfonamide]	≥ 50
COc1ccc(Nc2cc(S(N)(=O)=O)ncc2C(=O)N2CCC(c3ccc(F)cc3)CC2)cc1 [Compound 84, 5-[4-(4-fluorophenyl)piperidine-1-carbonyl]-4-(4-methoxyphenylamino)pyridine-2-sulfonamide]	≥ 50
COc1ccc(Nc2cc(S(N)(=O)=O)ncc2C(=O)N2CCC(c3ccc(F)cc3)CC2)cc1F [Compound 86, 4-(3-fluoro-4-methoxyphenylamino)-5-[4-(4-fluorophenyl)piperidine-1-carbonyl]pyridine-2-sulfonamide]	≥ 50
COc1ccc(Nc2cc(S(N)(=O)=O)ncc2C(=O)N2CCC(c3ccc(F)cc3)CC2)c(F)c1 [Compound 87, 4-(2-fluoro-4-methoxyphenylamino)-5-[4-(4-fluorophenyl)piperidine-1-carbonyl]pyridine-2-sulfonamide]	≥ 50
COc1ccc(Nc2cc(S(N)(=O)=O)ncc2C(=O)N2CCC(c3ccc(F)cc3)CC2)cc1C [Compound 88, 5-[4-(4-fluorophenyl)piperidine-1-carbonyl]-4-(4-methoxy-3-methylphenylamino)pyridine-2-sulfonamide]	≥ 50
COc1ccc(Nc2cc(S(N)(=O)=O)ncc2C(=O)N2CCC(c3ccc(F)cc3)CC2)cc1C(F)(F)F [Compound 89, 5-[4-(4-fluorophenyl)piperidine-1-carbonyl]-4-[4-methoxy-3-(trifluoromethyl)phenylamino]pyridine-2-sulfonamide]	≥ 50
NS(=O)(=O)c1cc(Nc2ccc(Br)cc2Cl)c(C(=O)N2CCC(c3ccc(F)cc3)CC2)cn1 [Compound 90, 4-(4-bromo-2-chlorophenylamino)-5-[4-(4-fluorophenyl)piperidine-1-carbonyl]pyridine-2-sulfonamide]	≥ 50
NS(=O)(=O)c1cc(Nc2ccc(Br)cc2F)c(C(=O)N2CCC(c3ccc(F)cc3)CC2)cn1 [Compound 91, 4-(4-bromo-2-fluorophenylamino)-5-[4-(4-fluorophenyl)piperidine-1-carbonyl]pyridine-2-sulfonamide]	≥ 50

Structure (SMILES)	inhibition at up to 1 µM [%]
COc1ccc(Nc2cc(S(N)(=O)=O)ncc2C(=O)N2CCC(c3ccc(F)cc3)CC2)c(Cl)c1 [Compound 92, 4-(2-chloro-4-methoxyphenylamino)-5-[4-(4-fluorophenyl)piperidine-1-carbonyl]pyridine-2-sulfonamide]	≥ 50
COc1ccc(C)c(Nc2cc(S(N)(=O)=O)ncc2C(=O)N2CCC(c3ccc(F)cc3)CC2)c1 [Compound 93, 5-[4-(4-fluorophenyl)piperidine-1-carbonyl]-4-(5-methoxy-2-methylphenylamino)pyridine-2-sulfonamide]	≥ 50
NS(=O)(=O)c1cc(Nc2ccc3c(c2)CCO3)c(C(=O)N2CCC(c3ccc(F)cc3)CC2)cn1 [Compound 94, 4-(2,3-dihydrobenzofuran-5-ylamino)-5-[4-(4-fluorophenyl)piperidine-1-carbonyl]pyridine-2-sulfonamide]	≥ 50
NS(=O)(=O)c1cc(Nc2ccccc2)c(C(=O)N2CCC(c3ccc(F)cc3)CC2)cn1 [Compound 95, 5-[4-(4-fluorophenyl)piperidine-1-carbonyl]-4-(phenylamino)pyridine-2-sulfonamide]	≥ 50
Cc1cccc(Nc2cc(S(N)(=O)=O)ncc2C(=O)N2CCC(c3ccc(F)cc3)CC2)c1 [Compound 96, 5-[4-(4-fluorophenyl)piperidine-1-carbonyl]-4-(m-tolylamino)pyridine-2-sulfonamide]	≥ 50
Cc1ccc(Nc2cc(S(N)(=O)=O)ncc2C(=O)N2CCC(c3ccc(F)cc3)CC2)cc1 [Compound 98, 5-[4-(4-fluorophenyl)piperidine-1-carbonyl]-4-(p-tolylamino)pyridine-2-sulfonamide]	≥ 50
COc1cc(F)ccc1Nc1cc(S(N)(=O)=O)ncc1C(=O)N1CCC(c2ccc(F)cc2)CC1 [Compound 99, 4-(4-fluoro-2-methoxyphenylamino)-5-[4-(4-fluorophenyl)piperidine-1-carbonyl]pyridine-2-sulfonamide]	≥ 50
Cc1cc(C(F)(F)F)ccc1Nc1cc(S(N)(=O)=O)ncc1C(=O)N1CCC(c2ccc(F)cc2)CC1 [Compound 100, 5-[4-(4-fluorophenyl)piperidine-1-carbonyl]-4-[2-methyl-4-(trifluoromethyl)phenylamino]pyridine-2-sulfonamide]	≥ 50
NS(=O)(=O)c1cc(Nc2ccccc2F)c(C(=O)N2CCC(c3ccc(F)cc3)CC2)cn1 [Compound 102, 5-[4-(4-fluorophenyl)piperidine-1-carbonyl]-4-(2-fluorophenylamino)pyridine-2-sulfonamide]	≥ 50
NS(=O)(=O)c1cc(Nc2cccc(Cl)c2)c(C(=O)N2CCC(c3ccc(F)cc3)CC2)cn1 [Compound 103, 4-(3-chlorophenylamino)-5-[4-(4-fluorophenyl)piperidine-1-carbonyl]pyridine-2-sulfonamide]	≥ 50
COc1cc(C)c(Nc2cc(S(N)(=O)=O)ncc2C(=O)N2CCC(c3ccc(F)cc3)CC2)cc1Cl [Compound 104, 4-(5-chloro-4-methoxy-2-methylphenylamino)-5-[4-(4-fluorophenyl)piperidine-1-carbonyl]pyridine-2-sulfonamide]	≥ 50
Cc1cc(O)c(Cl)cc1Nc1cc(S(N)(=O)=O)ncc1C(=O)N1CCC(c2ccc(F)cc2)CC1 [Compound 105, 4-(5-chloro-4-hydroxy-2-methylphenylamino)-5-[4-(4-fluorophenyl)piperidine-1-carbonyl]pyridine-2-sulfonamide]	≥ 50
NS(=O)(=O)c1cc(Nc2ccc(OC(F)F)cc2)c(C(=O)N2CCC(c3ccc(F)cc3)CC2)cn1 [Compound 106, 4-[4-(difluoromethoxy)phenylamino]-5-[4-(4-fluorophenyl)piperidine-1-carbonyl]pyridine-2-sulfonamide]	≥ 50
Cc1ccc(Nc2cc(S(N)(=O)=O)ncc2C(=O)N2CCC(c3ccc(F)cc3)CC2)cc1C [Compound 107, 4-(3,4-dimethylphenylamino)-5-[4-(4-fluorophenyl)piperidine-1-carbonyl]pyridine-2-sulfonamide]	≥ 50
Cc1ccc(Cl)cc1Nc1cc(S(N)(=O)=O)ncc1C(=O)N1CCC(c2ccc(F)cc2)CC1 [Compound 109, 4-(5-chloro-2-methylphenylamino)-5-[4-(4-fluorophenyl)piperidine-1-carbonyl]pyridine-2-sulfonamide]	≥ 50
